Assays:
Test in all cases: relative viability (nuclei count vs DMSO), 5 days (fraction); higher = more cells survive
[1] = compound: COC1=CC=C(C=C1)COC2=C(C=C(C=C2)CC3=CN=C(N=C3N)N)OC [GW-2580]
Outline: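 Lung cancer cell lines in 1536-well plates were exposed by pinning to five library-drug doses (not always all listed) √10 apart, following an overnight hold at 37 °C. MetaXpress counted Hoechst-stained nuclei from 4× images taken after 5 days without medium change. Viability is the median ratio of treated-well to vehicle-well nuclei across plates. Plates required control CV below 25% and at least one doubling.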

[2] = compound: COC1=CC=C(C=C1)COC2=C(C=C(C=C2)CC3=CN=C(N=C3N)N)OC [GW-2580] + Cc1nc(NC(=O)N2CCC[C@H]2C(N)=O)sc1-c1ccnc(C(C)(C)C(F)(F)F)c1 [Alpelisib] (partner 2 µM)
Outline: (§1)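 Lung cancer cell lines in 1536-well plates got either a single drug or a fixed anchor-drug dose together with five library-drug doses (not always all listed) in √10 steps, by pin tool, on the day after seeding. Nuclei were counted after 5 days, and relative viability is the treated-to-vehicle ratio of nuclei counts. Values are medians of duplicate plates.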

[3] = compound: COC1=CC=C(C=C1)COC2=C(C=C(C=C2)CC3=CN=C(N=C3N)N)OC [GW-2580] + Cc1nc(Nc2ncc(C(=O)Nc3c(C)cccc3Cl)s2)cc(N2CCN(CCO)CC2)n1 [Dasatinib] (partner 0.075 µM)
Outline: as §1

[4] = compound: Cc1cnc(Nc2ccc(OCCN3CCCC3)cc2)nc1Nc1cccc(S(=O)(=O)NC(C)(C)C)c1 [Fedratinib] + COc1cc2c(Oc3ccc(NC(=O)C4(C(=O)Nc5ccc(F)cc5)CC4)cc3F)ccnc2cc1OCCCN1CCOCC1 [Foretinib] (partner 0.25 µM)
Outline: as §1

[5] = compound: Cc1cnc(Nc2ccc(OCCN3CCCC3)cc2)nc1Nc1cccc(S(=O)(=O)NC(C)(C)C)c1 [Fedratinib] + C[C@@H](Oc1cc(-c2cnn(C3CCNCC3)c2)cnc1N)c1c(Cl)ccc(F)c1Cl [Crizotinib] (partner 1 µM)
Outline: as §1

| Cell Line | relative viability ([1]; 0.08 µM) | relative viability ([1]; 0.8 µM) | relative viability ([1]; 2.53 µM) | relative viability ([1]; 8 µM) | relative viability ([2]; first compound 0.08 µM) | relative viability ([2]; first compound 2.53 µM) | relative viability ([2]; first compound 8 µM) | relative viability ([3]; first compound 0.08 µM) | relative viability ([3]; first compound 0.8 µM) | relative viability ([3]; first compound 2.53 µM) | relative viability ([3]; first compound 8 µM) | relative viability ([4]; first compound 0.1 µM) | relative viability ([4]; first compound 0.3162 µM) | relative viability ([4]; first compound 1 µM) | relative viability ([5]; first compound 0.1 µM) | relative viability ([5]; first compound 0.3162 µM) | relative viability ([5]; first compound 1 µM) | relative viability ([2]; first compound 0.8 µM) |
| --- | --- | --- | --- | --- | --- | --- | --- | --- | --- | --- | --- | --- | --- | --- | --- | --- | --- | --- |
| LCLC-97TM1 | 0.972 | 1.07 | 0.848 | 1.03 | 0.233 | 0.189 | 0.226 | 0.891 | 0.866 | 0.899 | 0.821 | 1.03 | 0.913 | 0.935 | 0.353 | 0.24 | 0.334 | – |
| LCLC-103H | 0.999 | 0.909 | 0.977 | 0.927 | 0.928 | 0.961 | 0.954 | 0.451 | 0.496 | 0.511 | 0.484 | 0.644 | 0.797 | 0.608 | 1.07 | 0.922 | 1.01 | 1.11 |
| LK-2 | 1.18 | 0.988 | 0.742 | 1.02 | 1.21 | 0.849 | 1.38 | 0.288 | 0.281 | 0.282 | 0.295 | 1.1 | 1.14 | 1.14 | – | 0.187 | 0.214 | 1.21 |
| LOU-NH91 | 0.987 | 1.05 | 0.843 | 0.973 | 0.677 | 0.635 | 0.688 | 0.555 | 0.719 | 0.517 | 0.553 | 0.917 | 0.956 | 0.875 | 0.701 | 0.764 | 0.75 | 0.756 |
| LU99A | 0.991 | 0.875 | 0.949 | 0.916 | 0.496 | 0.354 | 0.528 | 0.609 | 0.651 | 0.472 | 0.465 | 0.717 | 0.858 | 0.644 | 0.427 | 0.618 | 0.509 | 0.522 |
| LXF-289 | 1.03 | 1.08 | 0.988 | 0.937 | 1.07 | 0.998 | 0.907 | 0.208 | 0.267 | 0.177 | 0.217 | 0.963 | 0.958 | 0.981 | 0.81 | 0.79 | 0.804 | 1.09 |
| NCI-H23 | 1.03 | 1.11 | 0.983 | 0.99 | 0.76 | 0.512 | 0.749 | 0.847 | 0.921 | 0.757 | 0.792 | 0.945 | 0.767 | 0.822 | 0.305 | 0.475 | 0.41 | 0.735 |
| NCI-H322M | 0.941 | 1.1 | 0.971 | 0.946 | 0.833 | 0.855 | 0.795 | 0.247 | 0.24 | 0.263 | 0.253 | 0.946 | 0.95 | 0.596 | 0.949 | 0.877 | 0.966 | 0.912 |
| NCI-H358 | 0.965 | 1.03 | 0.874 | 0.789 | 0.967 | 0.851 | 0.775 | 0.173 | 0.199 | 0.159 | 0.115 | 0.482 | 0.63 | 0.541 | 0.427 | 0.608 | 0.374 | 0.872 |
| NCI-H441 | 1.07 | 0.924 | 1.01 | 1.14 | 0.972 | 0.718 | 0.699 | 0.679 | 0.764 | 0.582 | 0.534 | 1.12 | 0.907 | 0.868 | 0.65 | 0.623 | 0.619 | 0.853 |
| NCI-H460 | 1.07 | 1.05 | 1.01 | 0.952 | 0.49 | 0.44 | 0.511 | 0.574 | 0.722 | 0.452 | 0.512 | 0.793 | 1.05 | 0.997 | 0.47 | 0.767 | 0.812 | 0.464 |
| NCI-H520 | 1.09 | 1.13 | 0.894 | 1.12 | 1.02 | 0.837 | 0.966 | 0.203 | 0.238 | 0.204 | 0.252 | 0.797 | 0.736 | 0.726 | 0.716 | 0.703 | 0.594 | 0.988 |
| NCI-H596 | 1.03 | 1.07 | 1.02 | 1.18 | 0.486 | 0.516 | 0.471 | 0.625 | 0.543 | 0.7 | 0.688 | 0.881 | 0.78 | 0.762 | 0.983 | 1.01 | 0.973 | 0.525 |
| NCI-H647 | 1.12 | 1.14 | 0.846 | 0.97 | 1.44 | 1.04 | 1.13 | 0.189 | 0.16 | 0.11 | 0.224 | 1.16 | 1.23 | 1.16 | 1.06 | 1.09 | 0.584 | 1.45 |
| NCI-H650 | 0.974 | 1.04 | 0.817 | 0.961 | 1.26 | 0.914 | 1.14 | 0.468 | 0.538 | 0.396 | 0.424 | 0.943 | 1.01 | 1.01 | – | 0.682 | 0.668 | 1.06 |
| NCI-H661 | 1.03 | 1.04 | 0.951 | 0.814 | 0.542 | 0.426 | 0.479 | 0.983 | 0.943 | 0.689 | 0.685 | 0.959 | 1.1 | 1 | 0.964 | 0.948 | 1.04 | 0.835 |
| NCI-H727 | 1.14 | 1.03 | 0.971 | 0.823 | 0.664 | 0.615 | 0.453 | 0.414 | 0.409 | 0.44 | 0.299 | 0.835 | 0.808 | 0.779 | 0.791 | 0.688 | 0.661 | 0.594 |
| NCI-H838 | 1.09 | 1.05 | 0.884 | 1 | 1.01 | 1.15 | 1.07 | 0.295 | 0.344 | 0.241 | 0.316 | 1.05 | 1.06 | 0.989 | 0.669 | 0.847 | 0.745 | 1.06 |
| NCI-H1355 | 1.03 | 1.11 | 0.837 | 0.976 | 0.816 | 0.694 | 0.883 | 0.831 | 0.779 | 0.468 | 0.649 | 1.06 | 0.973 | 0.913 | 1.06 | 1.04 | 1.07 | 0.937 |
| NCI-H1437 | 1 | 1.06 | 0.926 | 0.835 | 1.12 | 0.892 | 0.81 | 0.422 | 0.411 | 0.36 | 0.271 | 1.25 | 1.25 | 1.33 | 0.999 | 0.883 | 0.922 | 1.11 |
| NCI-H1563 | 0.982 | 0.966 | 0.876 | 0.912 | 0.989 | 0.853 | 0.869 | 0.473 | 0.534 | 0.458 | 0.447 | 0.894 | 0.927 | 0.874 | 0.898 | 0.893 | 0.842 | 1.05 |
| NCI-H1651 | 1.06 | 1.08 | 0.952 | 0.977 | 1.26 | 0.954 | 0.934 | 0.307 | 0.447 | 0.43 | 0.582 | 0.813 | 0.73 | 0.761 | 0.931 | 0.875 | 0.808 | 1.17 |
| NCI-H1666 | 0.976 | 1.38 | 0.937 | 0.97 | 1.17 | 1 | 1.03 | 0.874 | 0.901 | 0.758 | 0.755 | 0.927 | 0.991 | 0.962 | 1.03 | 0.994 | 0.843 | 1.21 |
| NCI-H1734 | 0.987 | 0.986 | 0.912 | 0.914 | 0.697 | 0.654 | 0.671 | 0.459 | 0.497 | 0.456 | 0.447 | 0.665 | 0.921 | 0.786 | 0.629 | 0.692 | 0.629 | 0.761 |
| NCI-H1755 | 1.06 | 1.07 | 0.944 | 0.878 | 1.02 | 0.787 | 0.945 | 0.488 | 0.553 | 0.388 | 0.396 | 0.937 | 0.977 | 0.874 | 0.858 | 0.862 | 0.802 | 1.02 |
| NCI-H1915 | 1.04 | 1.02 | 1.07 | 0.969 | 1.06 | 1.09 | 1.02 | 0.356 | 0.295 | 0.272 | 0.273 | 1.09 | 1.08 | 1.05 | 0.942 | 0.866 | 0.777 | 1.12 |
| NCI-H1944 | 1 | 0.999 | 0.972 | 0.886 | 0.826 | 0.828 | 0.759 | 0.207 | 0.224 | 0.203 | 0.212 | 0.837 | 0.962 | 0.824 | 1.12 | 1.09 | 1.04 | 0.94 |
| NCI-H1975 | 1.04 | 1.12 | 0.935 | 0.87 | 0.693 | 0.647 | 0.596 | 0.406 | 0.388 | 0.379 | 0.315 | 1.09 | 0.947 | 0.746 | 0.802 | 0.928 | 0.663 | 0.778 |
| NCI-H1993 | 0.86 | 1.16 | 0.764 | 1.1 | 0.684 | – | 0.704 | 0.611 | 0.606 | 0.524 | 0.568 | 0.763 | 0.818 | 0.808 | 0.747 | 0.773 | 0.848 | 0.677 |

Reference: the supplement of paper PMC10307832
